Test results as given in PubChem BioAssay AID2124 (Sanford-Burnham Center for Chemical Genomics, 2009).
Records with an inconclusive call do not appear. Activity calls are given as the source filed them. No rule for the calls is given here; tested in MIN6 cells.

Test: cell-permeable autofluorescent compounds in GFP channel, dose response, artefact control, imaging, high-content imaging (AID 2124);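 also: cells exposed to compound for 48 hours before fixing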
Settings: cells, GFP-channel autofluorescence, high-content imaging, at 10 µM; for z-score: stronger effect = higher value

SMILES	z-score	cell count [cells]
CCCn1nc2cc(C(=O)NCc3ccccc3)ccc2c1OCC	-0.33 (inactive)	3340
N#C/C(=C\c1ccc(-c2ccc(C(=O)O)cc2)o1)c1nc2ccccc2[nH]1	-0.29 (inactive)	3280
O=C(NN=C1CCN(Cc2ccccc2)CC1)c1cccc(S(=O)(=O)Nc2ccccc2Cl)c1	-0.38 (inactive)	3200
O=C(COC(=O)c1cc(S(=O)(=O)N2CCOCC2)ccc1O)NCC1CCCO1 (stereo unspecified)	-0.33 (inactive)	3080
CCN(CC)c1ccc(/C=C2/SC(=O)N(C(C)C)C2=O)o1	0.73	596
COc1cc2nc(/C=C/c3ccc(N(C)C)cc3)sc2cc1SC	0.29	2900
CC1CCCCC1NC(=O)COC(=O)c1c2c(nc3ccccc13)/C(=C/c1ccco1)CC2 (stereo unspecified)	-0.35 (inactive)	2820
COc1ccc2c(C(=O)CN(C)C3CCCCC3)c[nH]c2c1	-0.37 (inactive)	3190
CN(C)CCOCCOc1ccccc1-c1ccccc1	-0.33 (inactive)	3130
CC(=Nc1ccc(C)cc1C)c1sc2ccccc2c1O	-0.3 (inactive)	2760
Cc1ccc(C2(C(F)(F)F)N=C3Sc4cc(C)ccc4N3C(=O)N2)cc1 (stereo unspecified)	-0.39 (inactive)	2940
COC(=O)c1sc2ccccc2c1-n1cccc1C(=O)C(=O)Nc1ccc(F)cc1	-0.38 (inactive)	3000
CC(C)C(C)(C#N)NC(=O)CSc1nnc(C(F)(F)F)n1C (stereo unspecified)	-0.33 (inactive)	3010
COc1ccc(N(CCN2C(=O)c3ccccc3C2=O)C(=O)c2cccc([N+](=O)[O-])c2)cc1	-0.25 (inactive)	2790
CN(C)c1ccc(/C=C2\SC(=O)N(CC(O)Cn3c4ccccc4c4ccccc43)C2=O)cc1 (stereo unspecified)	-0.23 (inactive)	3020
CCOC(=O)CNC(=O)c1cn(C)c(=O)c2cc(OC)c(OC)cc12	-0.33 (inactive)	3170
O=C(COC(=O)c1ccco1)NCC1CCCO1 (stereo unspecified)	-0.39 (inactive)	2790
COc1ccc(C2/C=C\CN(S(=O)(=O)c3cccc4cccnc34)CC(=O)N2Cc2ccc(F)cc2)cc1 (stereo unspecified)	-0.39 (inactive)	3760
CCCS(=O)(=O)N1CCC(C(=O)N2CCOCC2)CC1	-0.38 (inactive)	2930
CCN(CC)c1ccc(/C=C2\SC(=O)N(C(C)C)C2=O)o1	0.48	941
CCOC(=O)CC1C(=O)NCCN1c1nc2c(C)cccn2c(=O)c1/C=C1\SC(=S)N(C(C)CC)C1=O (stereo unspecified)	0.45	3100
CCOC(=O)c1ccc(NC(=O)COc2ccc(S(=O)(=O)NC(C)CC)cc2)cc1 (stereo unspecified)	-0.33 (inactive)	3160
CN1C2CCC1/C(=C/c1cccn1C)C(=O)/C2=C\c1cccn1C	-0.29 (inactive)	3280
CC1(C)Cc2c(c(-c3ccccc3)[nH]c(=O)c2C#N)CO1	-0.33 (inactive)	3520
CC(C)C1S/C(=N/N=C/c2ccco2)NC1=O (stereo unspecified)	-0.33 (inactive)	3160
CCc1c(C(=O)NC2CCCCC2)[nH]c(C)c1C(C)=O	-0.25 (inactive)	3040

SMILES	z-score	cell count [cells]
C/C(=N\S(=O)(=O)c1ccc(C)cc1)N1CCN(S(=O)(=O)c2ccccc2)C1	-0.38 (inactive)	3140
CC(=O)Cc1cc(O)c2ccccc2c1OC(=O)c1ccc(Br)cc1	-0.26 (inactive)	2650
COCCNC(=O)c1onc(CSc2cccc(C)c2)c1C(=O)O	-0.39 (inactive)	3170
CC1CCCC(C2(O)C(=O)Nc3ccccc32)C1=O (stereo unspecified)	-0.33 (inactive)	3180
COc1ccccc1NC(=O)COC(=O)C1CC2C=CC1C2 (stereo unspecified)	-0.25 (inactive)	2990
CCOC(=O)CN1CC23C=CC(O2)C(C(=O)Nc2cc(OC)ccc2OC)C3C1=O (stereo unspecified)	-0.38 (inactive)	3210
CC(C)N1CCc2c(sc(NC(=O)c3ccc(S(=O)(=O)N4CCc5ccccc54)cc3)c2C(N)=O)C1	0.77	1390
CCCCCCN1C=CC(=C/C=C(\C#N)C(=O)OCC)C=C1	0.43	3270
CCOC(=O)CC1C(=O)NCCN1S(=O)(=O)c1ccc(Cl)cc1Cl (stereo unspecified)	-0.33 (inactive)	3500
O=C(Nc1ccc(N2CCCCC2)cc1)c1cccnc1	-0.39 (inactive)	3060
CCN(CC)c1ccc2cc(-c3nnc(-c4ccccc4)o3)c(=O)oc2c1	1.33	3220
O=C(NC1=NCCS1)C1Cc2ccccc2CN1C(=O)c1ccccc1 (stereo unspecified)	-0.34 (inactive)	2680
CCS(=O)(=O)N1Cc2ccccc2CC1C(=O)OCC(=O)Nc1ccc(C)cc1 (stereo unspecified)	-0.33 (inactive)	3150
Cc1cccc(NC(=O)Nc2ccc(C#N)cc2)n1	-0.32 (inactive)	2800
CN(C)c1ccc(/C=C2\N=C(c3ccc(Cl)c([N+](=O)[O-])c3)NC2=O)cc1	-0.33 (inactive)	2940
CN1C(=O)CC(N2CCN(Cc3ccc(Cl)cc3)CC2)C1=O (stereo unspecified)	-0.39 (inactive)	2870
CC1CN(C(=O)CCn2c(=O)oc3ccccc32)CC(C)O1 (stereo unspecified)	-0.39 (inactive)	3070
Cc1cc(N/N=C/c2ccc([N+](=O)[O-])o2)nc2ccccc12	0.28	733
NCC12CC3CC(C1)CC(CN)(C3)C2	-0.36 (inactive)	3300
CCCCCCn1c(O)c(C=Nc2ccccc2N2CCOCC2)c(=O)[nH]c1=S	-0.37 (inactive)	3050
N#Cc1c(-c2ccco2)cc(C2CC2)nc1SCC(=O)c1ccccc1	-0.27 (inactive)	3090
Cc1[nH]n(-c2ccc([N+](=O)[O-])cc2)c(=O)c1C=NCCN1CCN(C(=O)c2ccccc2F)CC1	-0.26 (inactive)	3100
Cc1ccc(S(=O)(=O)C(C#N)c2nc3ccccc3nc2N2CCC(C)CC2)cc1 (stereo unspecified)	-0.33 (inactive)	3260
CCC(C)(C(=O)NC1CCCC1)N(C(=O)CNC(C)=O)c1ccccc1 (stereo unspecified)	-0.39 (inactive)	2960
Cc1cc(C)n(-c2ccc(C(=O)OCC(=O)N(CC(C)C)C3CCS(=O)(=O)C3)cc2)n1 (stereo unspecified)	-0.33 (inactive)	3480
CCCNC(=O)Cn1c(=O)/c(=C\c2ccc(-c3ccc([N+](=O)[O-])cc3)o2)s/c1=C\C(=O)C(C)(C)C	2.07	3100

SMILES	z-score	cell count [cells]
CN(C)c1ccc(/C=N/NC(=O)CN(c2ccccc2Cl)S(C)(=O)=O)cc1Br	-0.39 (inactive)	3330
CCOC(=O)/C(C#N)=C/C=C1\C=Cc2ccccc2N1CC	-0.28 (inactive)	2720
COc1cc2c3nnc(-c4ccc(F)cc4)c-3cn(Cc3ccc(F)cc3)c2cc1OC	2.53	274
Cc1ccc(/C=[N+](\[O-])c2ccc(N(C)C)cc2)c2nsnc12	-0.38 (inactive)	1880
N#C/C(=C/c1ccc(-c2ccccc2)o1)c1nc(-c2cccs2)cs1	0.88	3200
CCOc1ccc(NC(=O)C2CCC(C)(C(=O)O)C2(C)C)cc1 (stereo unspecified)	-0.39 (inactive)	3170
Cc1cc(/C=C2\SC(=S)NC2=O)c(C)n1C1CC1	-0.3 (inactive)	3040
Cc1noc(C)c1CS(=O)(=O)c1ccc(Br)cc1	-0.26 (inactive)	2900
Cc1cc(SCCOc2ccccc2)nc(N)n1	-0.39 (inactive)	3470
CN1CCN(C(=O)/C(=C\c2cccs2)NC(=O)c2cccs2)CC1	-0.33 (inactive)	3070
COC(=O)c1c(NC(=O)CC2Nc3cc(C)c(C)cc3NC2=O)sc(C)c1C (stereo unspecified)	-0.38 (inactive)	3120
Cc1cc(C)c(C(=O)O)c(CC(C)(C)C(=O)O)c1	-0.33 (inactive)	3280
CN1/C(=C\C=C2C(=O)NC(=S)NC2=O)C(C)(C)c2ccccc21	3.61	2700
O=C1S/C(=C/c2ccc(N3CCOCC3)o2)C(=O)N1Cc1c(F)cccc1Cl	1.3	3280
CC(=O)NC(c1ccc(Cl)cc1)c1c(O)ccc2ccc(O)cc12 (stereo unspecified)	-0.38 (inactive)	3140
C=CCNC(=O)C1CCN(S(=O)(=O)c2ccc(Br)cc2)CC1	-0.33 (inactive)	3230
CCOC(=O)c1ccc(CSc2nnc(-c3ccncc3)n2N)cc1	-0.33 (inactive)	3110
Cn1ncc2c1ncn1nc(CCc3ccccc3)nc21	-0.33 (inactive)	2710
O=S(=O)(Cc1ccc(Cl)cc1)c1ccccc1-c1nnc(-c2ccccc2)o1	-0.39 (inactive)	3320
c1ccc(-c2csc(-n3cnnn3)n2)cc1	-0.38 (inactive)	3240
O=C(COc1ccc(Cl)cc1)NCc1nnc(SCC(=O)NC2CCCCC2)o1	-0.32 (inactive)	3660
Cc1cc(S(=O)(=O)NC2CCCCC2)c(C)s1	-0.33 (inactive)	3420
Cc1ccc(-c2cc(N)n(-c3ccccc3)n2)cc1	-0.33 (inactive)	3090
CCOc1ccc2[nH]c(=O)c(CN(CCc3ccccc3)C(=O)N3CCOCC3)cc2c1	-0.26 (inactive)	3100
Cc1cc(C)cc(-n2c(=O)c3sccc3n(CC(=O)NCc3ccco3)c2=O)c1	-0.39 (inactive)	3120
CN1C=CC2=C(C#N)C(N)C(C#N)(C#N)C(c3ccccc3)C2C1 (stereo unspecified)	0.32	2840
